From PubChem BioAssay (NCI)
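Step 1: Grow cells in 96-well plates. Step 2: Expose to compound for 48 hours at 5 concentrations. Step 3: Interpolate endpoints linearly; if unreached, use highest concentration. The concentration for full growth arrest is given as TGI.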

What was measured:
Assay in all cases: growth of human tumour cells (NCI), 48 h
SF-295 CNS = test system: SF-295 CNS
SK-OV-3 ovarian = test system: SK-OV-3 ovarian
HCT-116 colon = test system: HCT-116 colon
MALME-3M melanoma = test system: MALME-3M melanoma
786-0 renal = test system: 786-0 renal
COLO 205 colon = test system: COLO 205 colon
EKVX NSCLC = test system: EKVX NSCLC
A549 NSCLC = test system: A549 NSCLC
OVCAR-4 ovarian = test system: OVCAR-4 ovarian
SR leukemia = test system: SR leukemia
NCI-H522 lung = test system: NCI-H522 lung

Row | SMILES | TGI (SF-295 CNS) [µM] | TGI (SK-OV-3 ovarian) [µM] | TGI (HCT-116 colon) [µM] | TGI (MALME-3M melanoma) [µM] | TGI (786-0 renal) [µM] | TGI (COLO 205 colon) [µM] | TGI (EKVX NSCLC) [µM] | TGI (A549 NSCLC) [µM] | TGI (OVCAR-4 ovarian) [µM] | TGI (SR leukemia) [µM] | TGI (NCI-H522 lung) [µM]
1 | Cc1ccsc1/C=N/NC1=NCCN1 | > 100 | > 100 | > 100 | > 100 | > 100 | > 100 | > 100 | > 100 | > 100 |  | 
2 | Cc1ccc(S(=O)(=O)N(CC(O)COc2ccccc2)c2c(F)c(F)cc(F)c2F)cc1 (stereo not drawn) | 62 | 47.2 | > 100 | 64.1 | 58 | 29.1 | 92.3 | 72.8 | 52 | 28.5 | 
3 | N/C(=N\N=C\c1cc2ccccc2s1)c1cnccn1 | > 100 | > 100 | > 100 |  | > 100 | > 100 | > 100 | > 100 | > 100 | > 100 | > 100
4 | NC(Cc1ccc(O)cn1)C(=O)NC(C(=O)O)c1ccccc1 (stereo not drawn) | > 100 |  | > 100 | > 100 | > 100 | > 100 | > 100 | > 100 | > 100 | > 100 | > 100
5 | COc1cc(C2CC(C)(N3CCOCC3)Oc3cc4c(cc32)OCO4)cc(OC)c1OC (stereo not drawn) |  | > 80.5 | > 100 | > 100 | 11.5 |  | > 100 | > 100 | 8.65 | > 100 | > 100
6 | Cc1ccc(S(=O)(=O)NC(=O)Nc2c(S(N)(=O)=O)cc(S(N)(=O)=O)c(Cl)c2Cl)cc1 | > 100 | > 100 | > 100 | > 100 | > 100 |  | > 100 | > 100 | > 100 | > 100 | > 100
7 | CC(=O)O[C@@H]1[C@H](OC2CCCCC2(c2ccccc2)c2ccccc2)O[N+]([O-])=CC12CCCCC2 (stereo partly drawn) | 29.2 | 26.2 | 32 |  | 26.2 | 33.7 | 33.7 | 31.6 |  | > 100 | 35.2
8 | O=[N+]([O-])c1cc(C2(N3CCCCC3)CCCCC2)sc1Br | 30.1 | 31.2 | 35.5 | 20 | 39.2 | 17.7 | 24.6 | 33.7 | 27.1 | 10.7 | 6.78
9 | COC(=O)C1OC(O[C@H]2CC[C@]3(C)[C@H]4CC=C5[C@@H]6CC(C)(C)CC[C@]6(C(=O)OC)CC[C@@]5(C)[C@]4(C)CC[C@H]3C2(C)C)C(O)C(O)C1O (stereo partly drawn) | 28.7 | 34.8 | 26.2 | 38.2 | 19.2 | 29.9 | 29 | 22.5 | 30.6 | 14.4 | 35.2
10 | CC(C)C[S+]1C2=C([O-])CC(C)(C)CC2=Nc2ccccc21 (stereo not drawn) | > 100 | > 100 | > 100 | > 100 | > 100 | > 100 | > 100 | > 100 | > 100 | 75.8 | > 100
11 | CCOC(=O)Oc1cc2ccsc2c2c1c1ccccc1n2C(=O)OCC | > 100 | 84.9 | > 100 | > 100 | > 100 | > 100 | > 100 | > 100 | > 100 | > 100 | > 100
12 | CN(C(=O)[C@H](NC(=O)OCc1ccccc1)c1ccccc1)C1CCCCC1N1CCCC1 (stereo partly drawn) | > 100 | > 100 | > 100 | > 100 | > 100 | > 100 | > 100 | > 100 | > 100 | 87.6 | > 100
13 | Nc1nc(Cl)cc(NCC2(CO)CCCCC2)n1 | > 100 | > 100 | > 100 | > 100 | > 100 | > 100 | > 100 | > 100 | > 100 | > 100 | > 100
14 | COc1ccccc1N1CCN(CCCCNC(=O)c2ccc([N+](=O)[O-])o2)CC1 | 25.7 | 56.7 | 24.6 | 7.94 | 21.4 | 6.79 | 34.2 | 19.5 | 28.9 | > 58.3 | 7.26
15 | CC12NC(=C(C#N)C#N)C(C#N)=C3NC(N)=C(C#N)C(=C31)Oc1ccccc12 (stereo not drawn) | > 100 | > 100 | > 100 | > 100 | > 100 | > 100 | > 100 | > 100 | > 100 | > 100 | > 100
16 | CC(=O)Nc1ccc(NC(=O)CC(=O)Nc2ccc(NC(C)=O)cc2)cc1 | > 100 | 65.9 | > 100 | > 100 | > 100 | > 100 | > 100 | > 100 | > 100 | > 100 | > 100
17 | CC(=O)C(N1CCCCC1)C(O)(C(F)(F)F)C(F)(F)F (stereo not drawn) | > 100 | > 100 | > 100 | > 100 | > 100 | > 100 | > 100 | > 100 | > 100 | > 100 | > 100
18 | CN1C(=O)c2ccccc2C(O)(c2ccccc2)C1(O)c1ccccc1 (stereo not drawn) | > 100 | > 100 | > 100 | > 100 | > 100 | > 100 | > 100 | > 100 | > 100 | > 100 | > 100
19 | COC(=O)[C@H](CNC(=O)/C=C/c1ccc(OC(C)=O)c(OC(C)=O)c1)NC(=O)/C=C/c1ccc(OC(C)=O)c(OC(C)=O)c1 |  | > 100 | > 100 | > 100 | > 100 | > 100 | > 100 | > 100 | > 100 | > 100 | 
20 | O=C1c2ccccc2N=C(c2cc3c(cc2Cl)Sc2nccn2S3(=O)=O)OS(=O)(=O)N1c1ccccc1 | 42.4 | > 100 | 31.5 | > 100 | > 100 | 42.6 | > 100 | > 100 | > 100 | 26.2 | 25.5
